Source: patent US20240350463A1, “SMALL MOLECULE COMPOUNDS” (APERTOR PHARMACEUTICALS, INC., priority 2021, published 2024)

Columns and labels:
[1] = tested on: naïve CD4+ mouse T-cells; assay: expansion of CD62L+ memory T-cells (FACS); format: cell-based
Method: RAP23 was further evaluated by treating naïve CD4+ T-cells at multiple concentrations (1 nM to 1 uM) for expansion of CD62L+ memory T-cells. […] These 5 compounds were identified to have reduced immunosuppression (with improved safety) with maximum and durable expansion of memory T-cells.

[2] = tested on: mTOR activity (phospho-p70S6K); assay: phospho-p70S6K FACS in activated mouse T-cells; format: cell-based
[3] = tested on: CD8 cells isolated from p14 transgenic mice; assay: CD8 CTV-labelled proliferation assay; format: cell-based, mouse; conditions: activated for 72 hours; 10 nM, 100 nM, and 100 μM
Method: The five analogs and rapamycin were assayed for their effect on proliferation and correlation to p70S6K inhibitory activity. […] The proliferation was measured by FACS. The five analogs were tested at varying concentrations (10 nM, 100 nM, and 100 μM), activated for 72 hours with rapamycin and DMSO treated controls.
CD8 cells were isolated from p14 transgenic mice, then labelled with CTV. The labelled cells then were activated with plate-bound anti-CD3 (5 μg/mL) and soluble anti-CD28 (2 μg/mL), along with rapamycin, rapamycin analog, or DMSO. After activation of 48 hours and 72 hours, the cells were collected to assay the CVT labelling signal using flow cytometry. All rapamycin analogs decrease proliferation in CD8 cells, with varying potency (FIG. 12).

[4] = tested on: conventional T cells; assay: culture of conventional T cells with RAP35; format: cell-based
[5] = tested on: naïve CD4+ mouse T cells; assay: FACS of naïve CD4+ T cells for CD4+CD25+FOXP3+; conditions: 1 uM
[6] = tested on: Treg cells; assay: treatment of Treg cells with expander beads; format: cell-based; conditions: 100 nM
[7] = stability during semi-preparative HPLC; format: physicochemical; conditions: approximately one fifth transformed spontaneously to a more nonpolar compound
Method: To accumulate 35-desmethylrapamycin (RAP35) and 35-desmethyl-27-demethoxyrapamycin (RAP35/27) for characterization and bioactivity assays, a 7.2-L scale of fermentation was conducted. 7.2 L fermentation medium was prepared and aliquoted into eighteen 2 L Erlenmeyer flasks 20 mL of the seed culture was inoculated into each 2 L Erlenmeyer flask, which was then capped with 8-layer gauze. The fermentation was conducted at 28° C., 220 rpm for 4 days. To process the culture, the fermentation broth was centrifuged at 9,000 g for 10 min at room temperature, and the cell pellet was collected and combined. After transferring the cells into a 5 L glass beaker, 2 volumes of acetonitrile were added into 1 volume of the cells. The mixture was stirred vigorously using a magnetic stirrer at room temperature for 1 h. The mixing was halted, and the mixture was allowed to settle under gravity for 30 min. The solvent layer was poured into a 5 L Erlenmeyer flask, and another 2 volumes of acetonitrile was added into the cells for extraction. After three times of extraction in total, the solvent layers were combined and concentrated under reduced pressure. […] The absorbance at 278 nm wavelength was monitored. […]

For `CO[C@H]1C[C@@H]2CC[C@@H](C)[C@@](O)(O2)C(=O)C(=O)N2CCCC[C@H]2C(=O)O[C@H]([C@H](C)C[C@@H]2CC[C@@H](O)[C@H](OC)C2)CC(=O)[C@H](C)/C=C(\C)[C@@H](O)[C@@H](OC)C(=O)[C@H](C)CC/C=C/C=C/C=C/1C` [RAP23, (3S,6R,7E,9R,10R,12R,15E,17E,19E,21 S,23S,26R,27R,34aS)-9,27-dihydroxy-3-((R)-1-((1S,3R,4R)-4-hydroxy-3-methoxycyclohexyl)propan-2-yl)-10,21-dimethoxy-6,8,12,20,26-pentamethyl-9,10,12,13,14,21,22,23,24,25,26,27,32,33,34,34a-hexadecahydro-3H-23,27-epoxypyrido[2,1-c][1]oxa[4]azacyclohentriacontine-1,5,11,28,29(41H,6H,31H)-pentaone], the “generation of memory versus inhibition of proliferation” value [1] was “promote potent generation of memory without potently inhibiting proliferation”, the “phospho-p70S6K low/CD62L+ high phenotype relative to all doses of rapamycin” value ([1]; 1 nM to 1 uM) was “reduced” and the “portion of cells with phospho-p70S6K high/CD62L+ high phenotype” value ([1]; 1 nM to 1 uM) was 7-10%. For the same compound, the “inhibition of p70S6 high signal” value ([2]; even at 1 uM) was “never fully inhibited” and the “proliferation relative to RAP35 and rapamycin” value [3] was “increased proliferation”.

For `CO[C@H]1C[C@@H]2CC[C@@H](C)[C@@](O)(O2)C(=O)C(=O)N2CCCC[C@H]2C(=O)O[C@H](CC[C@@H]2CC[C@@H](O)[C@H](OC)C2)CC(=O)[C@H](C)/C=C(\C)[C@@H](O)[C@@H](OC)C(=O)[C@H](C)C[C@H](C)/C=C/C=C/C=C/1C` [RAP35, (3R,6R,7E,9R,10R,2R,14S,15E,17E,19E,21S,23S,26R,27R,34aS)-9,27-dihydroxy-3-(2-((1S,3R,4R)-4-hydroxy-3-methoxycyclohexyl)ethyl)-10,21-dimethoxy-6,8,12,14,20,26-hexamethyl-9,10,12,13,14,21,22,23,24,25,26,27,32,33,34,34a-hexadecahydro-3H-23,27-epoxypyrido[2,1-c][1]oxa[4]azacyclohentriacontine-1,5,11,28,29(4H,6H,31H)-pentaone], the p70S6 high cells ([2]; overnight stimulation, therapeutic concentrations (1-200 nM)) was “significantly reduced”, the CCR7 expression [4] was “increased” and the CD45RO expression [4] was “decreased”. For the same compound, the “level of phosphorylation of 4EBP1 and S6” value ([4]; 100 nM) was “mTOR pathway was being targeted”, the anti-inflammatory effects ([4]; Cell Proliferation Dye and phenotypic markers) was “promising anti-inflammatory effects” and the effect on differentiation [5] was “strong effect”. The “expression of CCR7” value [6] was “reduce”, the “expression of CD45RO” value [6] was “reduce” and the “expression of CXCR3” value [6] was “reduce”. For the same compound, the “phosphorylation of 4EBP1” value [6] was “reduce” and the “phosphorylation of S6” value [6] was “reduce”.

With `CO[C@H]1C[C@@H]2CC[C@@H](C)[C@@](O)(O2)C(=O)C(=O)N2CCCC[C@H]2C(=O)O[C@H](CC[C@@H]2CC[C@@H](O)[C@H](OC)C2)CC(=O)[C@H](C)/C=C(\C)[C@@H](O)CC(=O)[C@H](C)C[C@H](C)/C=C/C=C/C=C/1C` [RAP35/27A, (3R,6R,7E,9S,12R,14S,5E,17E,19E,21S,23S,26R,27R,34aS)-9,27-dihydroxy-3-(2-((1S,3R,4R)-4-hydroxy-3-methoxycyclohexyl)ethyl)-21-methoxy-6,8,12,14,20,26-hexamethyl-9,10,12,13,14,21,22,23,24,25,26,27,32,33,34,34a-hexadecahydro-3H-23,27-epoxypyrido[2,1-c][1]oxa[4]azacyclohentriacontine-1,5,11,28,29(4H,6H,31H)-pentaone] the “stability in the process of semi-preparation” value [7] was “tended to be unstable”.
